Laboratory results as given in ChEMBL document CHEMBL4308841, “Synthesis, in vitro antiproliferative activity, and kinase inhibitory effects of pyrazole-containing diarylureas and diarylamides” (Eur J Med Chem, 2018).

What was measured:
PC-3 [1] = assay: Growth inhibition of human PC3 cells assessed as cell growth at 0.1 uM incubated for 48 hrs by sulforhodamine B assay relative to control; type: functional; conditions: PC-3, 48 h, read-out: Activity
MDA-MB-231 = assay: Growth inhibition of human MDA-MB-231 cells incubated for 48 hrs by sulforhodamine B assay; type: functional, cell-based; conditions: MDA-MB-231, 48 h
CCRF-CEM = assay: Growth inhibition of human CCRF-CEM cells assessed as cell growth at 0.01 uM incubated for 48 hrs by sulforhodamine B assay relative to control; type: functional; conditions: read-out: Activity
PC-3 [2] = assay: Growth inhibition of human PC3 cells assessed as cell growth at 0.01 uM incubated for 48 hrs by sulforhodamine B assay relative to control; type: functional; conditions: PC-3, 48 h, read-out: Activity
SR = assay: Growth inhibition of human SR cells assessed as cell growth at 0.1 uM incubated for 48 hrs by sulforhodamine B assay relative to control; type: functional; conditions: read-out: Activity
NCI/ADR-RES = assay: Growth inhibition of human NCI/ADR-RES cells assessed as cell growth at 0.1 uM incubated for 48 hrs by sulforhodamine B assay relative to control; type: functional; conditions: read-out: Activity
HCT-15 = assay: Growth inhibition of human HCT15 cells assessed as cell growth at 0.01 uM incubated for 48 hrs by sulforhodamine B assay relative to control; type: functional; conditions: HCT-15, 48 h, read-out: Activity
CAKI-1 = assay: Growth inhibition of human Caki1 cells incubated for 48 hrs by sulforhodamine B assay; type: functional, cell-based; conditions: CAKI-1, 48 h
COLO 205 [3] = assay: Growth inhibition of human COLO205 cells assessed as cell growth at 0.01 uM incubated for 48 hrs by sulforhodamine B assay relative to control; type: functional; conditions: COLO 205, 48 h, read-out: Activity
A549 = assay: Growth inhibition of human A549/ATCC cells assessed as cell growth at 0.1 uM incubated for 48 hrs by sulforhodamine B assay relative to control; type: functional; conditions: A549, 48 h, read-out: Activity
NCI-H322M [4] = assay: Growth inhibition of human NCI-H322M cells assessed as cell growth at 100 uM incubated for 48 hrs by sulforhodamine B assay relative to control; type: functional; conditions: read-out: Activity
OVCAR-4 [5] = assay: Growth inhibition of human OVCAR4 cells incubated for 48 hrs by sulforhodamine B assay; type: functional, cell-based; conditions: OVCAR-4, 48 h
MDA-MB-468 = assay: Growth inhibition of human MDA-MB-468 cells incubated for 48 hrs by sulforhodamine B assay; type: functional, cell-based; conditions: MDA-MB-468, 48 h
NCI-H322M [6] = assay: Growth inhibition of human NCI-H322M cells assessed as cell growth at 0.01 uM incubated for 48 hrs by sulforhodamine B assay relative to control; type: functional; conditions: read-out: Activity
SK-MEL-2 [7] = assay: Growth inhibition of human SK-MEL-2 cells assessed as cell growth at 1 uM incubated for 48 hrs by sulforhodamine B assay relative to control; type: functional; conditions: SK-MEL-2, 48 h, read-out: Activity
NCI-H522 = assay: Growth inhibition of human NCI-H522 cells assessed as cell growth at 0.01 uM incubated for 48 hrs by sulforhodamine B assay relative to control; type: functional; conditions: NCI-H522, 48 h, read-out: Activity
COLO 205 [8] = assay: Growth inhibition of human COLO205 cells assessed as cell growth at 0.1 uM incubated for 48 hrs by sulforhodamine B assay relative to control; type: functional; conditions: COLO 205, 48 h, read-out: Activity
UO-31 = assay: Growth inhibition of human UO31 cells assessed as cell growth at 100 uM incubated for 48 hrs by sulforhodamine B assay relative to control; type: functional; conditions: UO-31, 48 h, read-out: Activity
MDA-MB-435 = assay: Growth inhibition of human MDA-MB-435 cells assessed as cell growth at 100 uM incubated for 48 hrs by sulforhodamine B assay relative to control; type: functional; conditions: MDA-MB-435, 48 h, read-out: Activity
SW-620 = assay: Growth inhibition of human SW620 cells incubated for 48 hrs by sulforhodamine B assay; type: functional, cell-based; conditions: SW-620, 48 h
NCI-H226 = assay: Growth inhibition of human NCI-H226 cells assessed as cell growth at 0.1 uM incubated for 48 hrs by sulforhodamine B assay relative to control; type: functional; conditions: NCI-H226, 48 h, read-out: Activity
Malme-3M = assay: Growth inhibition of human MALME-3M cells assessed as cell growth at 1 uM incubated for 48 hrs by sulforhodamine B assay relative to control; type: functional; conditions: read-out: Activity
T47D = assay: Growth inhibition of human T47D cells assessed as cell growth at 1 uM incubated for 48 hrs by sulforhodamine B assay relative to control; type: functional; conditions: read-out: Activity
NCI-H23 = assay: Growth inhibition of human NCI-H23 cells assessed as cell growth at 0.1 uM incubated for 48 hrs by sulforhodamine B assay relative to control; type: functional; conditions: NCI-H23, 48 h, read-out: Activity
SF-539 = assay: Growth inhibition of human SF539 cells assessed as cell growth at 100 uM incubated for 48 hrs by sulforhodamine B assay relative to control; type: functional; conditions: SF-539, 48 h, read-out: Activity
OVCAR-4 [9] = assay: Growth inhibition of human OVCAR4 cells assessed as cell growth at 100 uM incubated for 48 hrs by sulforhodamine B assay relative to control; type: functional; conditions: OVCAR-4, 48 h, read-out: Activity
SNB-19 = assay: Growth inhibition of human SNB19 cells incubated for 48 hrs by sulforhodamine B assay; type: functional, cell-based; conditions: SNB-19, 48 h
SK-MEL-2 [10] = assay: Growth inhibition of human SK-MEL-2 cells assessed as cell growth at 10 uM incubated for 48 hrs by sulforhodamine B assay relative to control; type: functional; conditions: SK-MEL-2, 48 h, read-out: Activity
NCI-H460 = assay: Growth inhibition of human NCI-H460 cells assessed as cell growth at 100 uM incubated for 48 hrs by sulforhodamine B assay relative to control; type: functional; conditions: NCI-H460, 48 h, read-out: Activity
SF-295 = assay: Growth inhibition of human SF295 cells assessed as cell growth at 0.1 uM incubated for 48 hrs by sulforhodamine B assay relative to control; type: functional; conditions: SF-295, 48 h, read-out: Activity
[11] = read-out: LC50 (the source's name)
[12] = read-out: pLC50 (the source's name) (converted)

SMILES: O=C(Nc1cccc(-n2cc(-c3ccncc3)c(-c3cc(O)cc(Cl)c3)n2)c1)Nc1ccc(Cl)c(C(F)(F)F)c1
- growth at 0.1 µM (PC-3 [1]): 98%
- GI50 (MDA-MB-231; read-out: GI50): 1.55 µM
- CC50 (MDA-MB-231; [11]): > 100 µM
- TGI (MDA-MB-231; read-out: TGI): 50.6 µM
- GI50 (MDA-MB-231; read-out: pGI50 (converted)): 1.86 µM
- CC50 (MDA-MB-231; [12]): > 100 µM
- TGI (MDA-MB-231; read-out: pTGI (converted)): 5.89 µM
- growth at 0.01 µM (CCRF-CEM): 97%
- growth at 0.01 µM (PC-3 [2]): 95%
- growth at 0.1 µM (SR): 98%
- growth at 0.1 µM (NCI/ADR-RES): 92%
- growth at 0.01 µM (HCT-15): 93%
- GI50 (CAKI-1; read-out: GI50): 2.53 µM
- CC50 (CAKI-1; [11]): > 100 µM
- TGI (CAKI-1; read-out: TGI): 78.7 µM
- GI50 (CAKI-1; read-out: pGI50 (converted)): 2.69 µM
- CC50 (CAKI-1; [12]): > 100 µM
- TGI (CAKI-1; read-out: pTGI (converted)): 7.94 µM
- growth at 0.01 µM (COLO 205 [3]): 102%
- growth at 0.1 µM (A549): 100%
- growth at 100 µM (NCI-H322M [4]): -81%
- GI50 (OVCAR-4 [5]; read-out: GI50): 3.21 µM
- CC50 (OVCAR-4 [5]; [11]): > 100 µM
- TGI (OVCAR-4 [5]; read-out: TGI): 92.3 µM
- GI50 (OVCAR-4 [5]; read-out: pGI50 (converted)): 3.24 µM
- CC50 (OVCAR-4 [5]; [12]): > 100 µM
- TGI (OVCAR-4 [5]; read-out: pTGI (converted)): 9.33 µM
- IC50 (MDA-MB-468): 2.08 µM
- GI50 (MDA-MB-468; read-out: GI50): 2.05 µM
- CC50 (MDA-MB-468; [11]): > 100 µM
- TGI (MDA-MB-468; read-out: TGI): 84.2 µM
- GI50 (MDA-MB-468; read-out: pGI50 (converted)): 2.63 µM
- CC50 (MDA-MB-468; [12]): > 100 µM
- TGI (MDA-MB-468; read-out: pTGI (converted)): 8.51 µM
- growth at 0.01 µM (NCI-H322M [6]): 107%
- growth at 1 µM (SK-MEL-2 [7]): 104%
- growth at 0.01 µM (NCI-H522): 56%
- growth at 0.1 µM (COLO 205 [8]): 95%
- growth at 100 µM (UO-31): -73%
- growth at 100 µM (MDA-MB-435): -93%
- GI50 (SW-620; read-out: GI50): 3.29 µM
- LC50 (SW-620; read-out: LC50): 58 µM
- TGI (SW-620; read-out: TGI): 10.7 µM
- GI50 (SW-620; read-out: pGI50 (converted)): 3.31 µM
- LC50 (SW-620; read-out: pLC50 (converted)): 56.2 µM
- TGI (SW-620; read-out: pTGI (converted)): 10.7 µM
- growth at 0.1 µM (NCI-H226): 95%
- growth at 1 µM (Malme-3M): 94%
- growth at 1 µM (T47D): 53%
- growth at 0.1 µM (NCI-H23): 91%
- growth at 100 µM (SF-539): -50%
- growth at 100 µM (OVCAR-4 [9]): -10%
- GI50 (SNB-19; read-out: GI50): 3.7 µM
- CC50 (SNB-19; [11]): > 100 µM
- TGI (SNB-19; read-out: TGI): 15.9 µM
- GI50 (SNB-19; read-out: pGI50 (converted)): 3.72 µM
- CC50 (SNB-19; [12]): > 100 µM
- TGI (SNB-19; read-out: pTGI (converted)): 16.6 µM
- growth at 10 µM (SK-MEL-2 [10]): -38%
- growth at 100 µM (NCI-H460): -52%
- growth at 0.1 µM (SF-295): 93%
